The supplement of paper PMC10331698
± gives the standard deviation of the averaged measurements.

Assays:
Methotrexate = compound: CN(Cc1cnc2nc(N)nc(N)c2n1)c1ccc(C(=O)N[C@@H](CCC(=O)O)C(=O)O)cc1 [Methotrexate]; assay: level (log10 ratio to DMSO vehicle control); higher = higher biomarker level / cell amount than vehicle control; conditions: in DMSO
Description: (§1)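 BioMAP Diversity Plus panel of 12 human primary cell co-culture systems (3C, 4H, LPS, SAg, BT, BF4T, BE3C, CASM3C, HDF3CGF, KF3CT, MyoF, Mphg). Compounds were added 1 h before stimulation and left for 24 h (MyoF 48 h; BT 72 h for soluble read-outs or 6 d for IgG). Biomarkers were read by ELISA, cytotoxicity by SRB, PBMC viability and proliferation by Alamar Blue. Each well value was divided by the mean of 8 DMSO control wells on the same plate and log10 transformed; duplicate blinded samples were tested at 4 concentrations.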

[1] = compound: O=P(O)(O)CCC(F)(F)C(F)(F)C(F)(F)C(F)(F)C(F)(F)C(F)(F)F [2-(Perfluorohexyl)ethylphosphonic acid]; assay: as above; conditions: in DMSO
Description: as §1

Row | Test System | level (log10) (Methotrexate; 1500 nM) | level (log10) (Methotrexate; 4400 nM) | level (log10) (Methotrexate; 13000 nM) | level (log10) (Methotrexate; 40000 nM) | level (log10) ([1]; 6700 nM) | level (log10) ([1]; 20000 nM) | level (log10) ([1]; 60000 nM)
1 | LPS:CD62E/E-Selectin | -0.01 ± 0.024 | -0.0185 ± 0.0021 | 0.005 ± 0.0014 | 0.005 ± 0.025 | -0.0005 ± 0.015 | -0.004 ± 0.011 | 0.0465 ± 0.012
2 | 3C:HLA-DR | -0.014 ± 0.031 | -0.012 ± 0.038 | -0.013 ± 0.025 | -0.011 ± 0.03 | -0.0055 ± 0.012 | -0.0135 ± 0.00071 | -0.0085 ± 0.044
3 | LPS:CD142/Tissue Factor | -0.0105 ± 0.018 | -0.0155 ± 0.039 | 0.022 ± 0.076 | -0.0035 ± 0.0021 | 0.0045 ± 0.1 | 0.054 ± 0.047 | 0.119 ± 0.052
4 | BT:PBMC Cytotoxicity | -0.037 ± 0.0071 | -0.0455 ± 0.0021 | -0.0635 ± 0.0078 | -0.049 ± 0.035 | 0.0025 ± 0.053 | 0.0325 ± 0.021 | 0.07 ± 0.047
5 | SAg:Proliferation | -0.085 ± 0.011 | -0.199 ± 0.044 | -0.253 ± 0.016 | -0.263 ± 0.023 | 0.0125 ± 0.0078 | -0.0165 ± 0.019 | -0.036 ± 0.03
6 | LPS:sPGE2 | 0.011 ± 0.025 | -0.0045 ± 0.057 | -0.0135 ± 0.067 | -0.0235 ± 0.021 | -0.0245 ± 0.013 | -0.0005 ± 0.019 | 0.0035 ± 0.025
7 | BF4T:uPA | 0.013 ± 0.0085 | 0.0115 ± 0.0078 | 0.005 ± 0.03 | 0.009 ± 0.028 | -0.0445 ± 0.037 | -0.0475 ± 0.028 | -0.0465 ± 0.013
8 | LPS:CD69 | -0.0175 ± 0.015 | -0.035 ± 0.033 | -0.0385 ± 0.044 | -0.0175 ± 0.0092 | -0.026 ± 0.075 | 0.001 ± 0.051 | 0.0815 ± 0.029
9 | LPS:CXCL8/IL-8 | -0.015 ± 0.0085 | -0.001 ± 0.013 | 0.0045 ± 0.0021 | 0.0055 ± 0.013 | -0.023 ± 0.024 | -0.0235 ± 0.0021 | 0.0375 ± 0.054
10 | 4H:CD106/VCAM-1 | -0.0045 ± 0.018 | -0.0095 ± 0.0021 | 0.005 ± 0.028 | -0.0005 ± 0.011 | 0.0205 ± 0.0064 | 0.025 ± 0.0085 | -0.01 ± 0.0028
11 | BT:sTNF-alpha | -0.067 ± 0.072 | -0.137 ± 0.11 | -0.0565 ± 0.023 | -0.0905 ± 0.1 | 0.114 ± 0.04 | 0.0475 ± 0.018 | 0.048 ± 0.24
12 | BF4T:Keratin 8/18 | 0.005 ± 0.038 | -0.0385 ± 0.005 | -0.006 ± 0.054 | 0.0155 ± 0.028 | -0.0045 ± 0.015 | -0.0065 ± 0.012 | 0.0105 ± 0.022
13 | BF4T:MMP-3 | 0.0045 ± 0.025 | -0.0285 ± 0.018 | -0.012 ± 0.031 | 0.015 ± 0.024 | -0.0205 ± 0.005 | -0.0125 ± 0.022 | -0.002 ± 0.023
14 | BE3C:IL-1alpha | -0.012 ± 0.0085 | -0.0255 ± 0.023 | -0.0095 ± 0.054 | 0.007 ± 0.033 | -0.01 ± 0.0014 | -0.0245 ± 0.005 | -0.007 ± 0.023
15 | LPS:CD106/VCAM-1 | 0.0075 ± 0.03 | -0.0065 ± 0.011 | 0.0085 ± 0.00071 | -0.0145 ± 0.005 | -0.021 ± 0.021 | -0.0185 ± 0.0021 | -0.011 ± 0.023
16 | 3C:Proliferation | 0.0185 ± 0.056 | 0.0495 ± 0.013 | 0.0285 ± 0.019 | -0.086 ± 0.04 | -0.066 ± 0.057 | -0.035 ± 0.017 | -0.101 ± 0.081
17 | 4H:SRB | 0.0105 ± 0.0078 | -0.0075 ± 0.011 | 0.0035 ± 0.00071 | 0.007 ± 0.0014 | -0.005 ± 0.024 | -0.0065 ± 0.021 | -0.0005 ± 0.032

Row | Test System | level (log10) (Methotrexate; 1500 nM) | level (log10) (Methotrexate; 4400 nM) | level (log10) (Methotrexate; 13000 nM) | level (log10) (Methotrexate; 40000 nM) | level (log10) ([1]; 6700 nM) | level (log10) ([1]; 20000 nM) | level (log10) ([1]; 60000 nM)
18 | LPS:IL-1alpha | -0.003 ± 0.024 | 0.003 ± 0.017 | 0.005 ± 0.031 | 0.0465 ± 0.077 | 0.0055 ± 0.0092 | -0.026 ± 0.014 | -0.0195 ± 0.087
19 | BT:B cell Proliferation | -0.0915 ± 0.016 | -0.1 ± 0.0085 | -0.099 ± 0.0071 | -0.052 ± 0.037 | 0.031 ± 0.0071 | 0.0135 ± 0.00071 | 0.051 ± 0.021
20 | 4H:CCL26/Eotaxin-3 | -0.018 ± 0.0085 | -0.008 ± 0.011 | 0.014 ± 0.021 | -0.002 ± 0.014 | -0.052 ± 0.09 | -0.0765 ± 0.066 | 0 ± 0.018
21 | 4H:CD62P/P-selectin | -0.019 ± 0.0028 | -0.0195 ± 0.032 | -0.0045 ± 0.086 | -0.0055 ± 0.073 | 0.022 ± 0.0042 | -0.01 ± 0.017 | -0.0585 ± 0.021
22 | SAg:PBMC Cytotoxicity | -0.001 ± 0.017 | 0.0015 ± 0.023 | 0.011 ± 0.018 | 0.0005 ± 0.0035 | -0.019 ± 0.023 | 0.012 ± 0.037 | -0.0165 ± 0.026
23 | 3C:SRB | 0.0055 ± 0.0035 | 0 ± 0.017 | 0.011 ± 0.028 | -0.0155 ± 0.0021 | 0.0015 ± 0.032 | 0.0085 ± 0.015 | -0.006 ± 0.028
24 | BF4T:CCL26/Eotaxin-3 | 0.057 ± 0.0014 | -0.005 ± 0.14 | 0.0465 ± 0.029 | 0.031 ± 0.072 | -0.0135 ± 0.022 | -0.04 ± 0.0099 | -0.034 ± 0.079
25 | LPS:CCL2/MCP-1 | -0.0335 ± 0.074 | -0.03 ± 0.055 | -0.0295 ± 0.1 | -0.0565 ± 0.064 | -0.016 | -0.0075 ± 0.005 | -0.0105 ± 0.019
26 | SAg:CD38 | 0.037 ± 0.0099 | -0.0175 ± 0.005 | 0.031 ± 0.0085 | 0.006 ± 0.028 | 0.018 | 0.0025 ± 0.016 | -0.0055 ± 0.011
27 | 4H:VEGFR2 | -0.0035 ± 0.04 | -0.028 ± 0.035 | -0.014 ± 0.017 | 0.022 ± 0.0057 | 0.0465 ± 0.015 | 0.0335 ± 0.0035 | -0.002 ± 0.027
28 | BE3C:CXCL9/MIG | 0.006 ± 0.0071 | 0.013 ± 0.0028 | 0.013 ± 0.014 | 0.01 ± 0.0057 | -0.008 ± 0.0057 | -0.0075 ± 0.0021 | 0.003 ± 0.02
29 | SAg:CXCL8/IL-8 | 0.023 ± 0.037 | -0.0215 ± 0.022 | -0.004 ± 0.02 | 0.0195 ± 0.052 | -0.003 ± 0.038 | 0.015 ± 0.023 | 0.143 ± 0.0021
30 | BF4T:CD54/ICAM-1 | 0.001 ± 0.0099 | -0.0135 ± 0.019 | 0.009 ± 0.0085 | 0.0095 ± 0.011 | -0.022 ± 0.018 | -0.0245 ± 0.00071 | -0.0125 ± 0.0092
31 | BF4T:MMP-9 | 0.0265 ± 0.012 | -0.0075 ± 0.029 | 0.014 ± 0.0099 | 0.016 | -0.0155 ± 0.00071 | -0.0015 ± 0.0078 | 0.018 ± 0.035
32 | BE3C:CXCL10/IP-10 | 0.003 ± 0.051 | 0.0105 ± 0.032 | 0.0195 ± 0.019 | 0.011 ± 0.038 | -0.056 ± 0.058 | -0.057 ± 0.067 | -0.0455 ± 0.09
33 | LPS:CD40 | -0.033 ± 0.018 | -0.0475 ± 0.011 | -0.009 ± 0.028 | -0.0155 ± 0.03 | 0.002 ± 0.062 | -0.012 ± 0.018 | 0.0205 ± 0.028
34 | BF4T:SRB | -0.003 ± 0.017 | -0.0105 ± 0.0078 | -0.007 ± 0.0071 | 0.0045 ± 0.023 | -0.007 ± 0.0042 | -0.011 ± 0.0014 | -0.0055 ± 0.016
